The source made the active and inactive calls. The rule behind the calls is not given here.
Assays:
Brugia malayi [1] = experiment: Antifilarial activity against Brugia malayi isolated from jird assessed as motility at 100 uM after 24 hr by dissecting microscopy; assay type: functional, organism-based
[2] = Stimulation of GST in Mus musculus (mouse) liver using CDNB as substrate at 100 uM after 10 min by spectrophotometric analysis relative to control; assay type: ADME, tissue-based
Brugia malayi [3] = experiment: Antifilarial activity against Brugia malayi isolated from jird assessed as inhibition of MTT reduction at 100 uM after 1 hr; assay type: functional
[4] = test system: GST (glutathione S-transferase); experiment: Inhibition of GST in Mus musculus (mouse) liver using CDNB as substrate at 100 uM after 10 min by spectrophotometric analysis relative to control; assay type: tissue-based; conditions: probe CDNB

Row | Structure (SMILES) | Activity (Brugia malayi [1]) | Activity [2] | inhibition at 100 µM (Brugia malayi [3]) | inhibition at 10 min, 100 µM [4]
1 | CCCCN(C(=S)Nc1ccccc1Cl)C(CC(=O)OCC)C1O[C@H]2OC(C)(C)O[C@H]2[C@@H]1OC (stereo not given in full) | Active | 38% | – | –
2 | CC[C@H](C)[C@@H](C(=O)NC(CC(N)=O)C1O[C@H]2OC(C)(C)O[C@H]2[C@@H]1OC)N(C(=O)Nc1ccccc1C)c1ccco1 (stereo not given in full) | Active | – | – | –
3 | CO[C@@H]1C(C(CC(N)=O)NC(=O)Nc2ccc(C)c(Cl)c2)O[C@H]2OC(C)(C)O[C@H]21 (stereo not given in full) | inactive | – | – | –
4 | CCOC(=O)CC(NC(=O)[C@@H]1CCCN1C(=O)OCC1c2ccccc2-c2ccccc21)C1O[C@H]2OC(C)(C)O[C@H]2[C@@H]1OC (stereo not given in full) | Active | 197% | 37% | –
5 | CCOC(=O)CC(NCCCCCCCNC(CC(=O)OCC)C1O[C@@H]2OC(C)(C)O[C@@H]2[C@H]1OCc1ccccc1)C1O[C@H]2OC(C)(C)O[C@H]2[C@@H]1OCc1ccccc1 (stereo not given in full) | Active | – | – | –
6 | COc1ccc(CN2C(=O)N(c3cccc(C(C)=O)c3)C(=O)CC2[C@H]2O[C@@H]3OC(C)(C)O[C@@H]3[C@H]2OC)cc1 (stereo not given in full) | inactive | – | 59% | 41%
7 | COc1ccc(CN2C(=O)N(c3cccc(C(C)=O)c3)C(=O)CC2[C@H]2O[C@@H]3OC(C)(C)O[C@@H]3[C@H]2OCc2ccccc2)cc1 (stereo not given in full) | inactive | 13% | – | –
8 | CCCCN1C(=S)N(c2ccccc2Cl)C(=O)CC1[C@H]1O[C@@H]2OC(C)(C)O[C@@H]2[C@H]1OC (stereo not given in full) | inactive | 64% | – | –
9 | COc1ccc(N(C(=O)NCc2ccccc2)[C@@H](CC(=O)O)C(=O)NC(CC(N)=O)C2O[C@H]3OC(C)(C)O[C@H]3[C@@H]2OC)cc1 (stereo not given in full) | inactive | – | – | –
10 | CC1(C)O[C@@H]2OC(CNCCCCCCCCCCCCNCC3O[C@@H]4OC(C)(C)O[C@@H]4[C@H]3OCc3ccccc3)[C@@H](OCc3ccccc3)[C@@H]2O1 (stereo not given in full) | Active | – | 94% | –
11 | CO[C@@H]1[C@H]2OC(C)(C)O[C@H]2O[C@@H]1C1CC(=O)N(c2cccc(C#N)c2)C(=O)N1Cc1ccc(Br)cc1 (stereo not given in full) | inactive | – | 37% | 19%
12 | COc1ccc(CN2C(=O)N(c3cc(Cl)cc(Cl)c3)C(=O)CC2[C@H]2O[C@@H]3OC(C)(C)O[C@@H]3[C@H]2OCc2ccccc2)cc1 (stereo not given in full) | inactive | 12% | 92% | –
13 | CO[C@@H]1C(C(CC(N)=O)N(C(=O)Nc2ccccc2C)C(CC(N)=O)C2O[C@@H]3OC(C)(C)O[C@@H]3[C@H]2OC)O[C@H]2OC(C)(C)O[C@H]21 (stereo not given in full) | inactive | – | 20% | –
14 | COc1ccc(CN2C(=O)N(c3cccc(C#N)c3)C(=O)CC2[C@H]2O[C@@H]3OC(C)(C)O[C@@H]3[C@H]2OC)cc1 (stereo not given in full) | inactive | – | 34% | 20%
15 | CC1(C)O[C@@H]2OC(CNCCCCCCCNCC3O[C@@H]4OC(C)(C)O[C@@H]4[C@H]3OCc3ccccc3)[C@@H](OCc3ccccc3)[C@@H]2O1 (stereo not given in full) | inactive | – | – | –
16 | COC(=O)CC(NC(=S)Nc1ccccc1)C1O[C@H]2OC(C)(C)O[C@H]2[C@@H]1OCc1ccccc1 (stereo not given in full) | Active | – | 69% | –
17 | CO[C@@H]1[C@H]2OC(C)(C)O[C@H]2O[C@@H]1C1CC(=O)N(c2ccc(F)cc2)C(=O)N1c1ccco1 (stereo not given in full) | inactive | – | 70% | –
18 | CCOc1ccc(N2C(=O)CC([C@H]3O[C@@H]4OC(C)(C)O[C@@H]4[C@H]3OC)N(Cc3ccccc3)C2=O)cc1 (stereo not given in full) | inactive | – | 50% | –
19 | CC1(C)O[C@H]2O[C@H](C3CC(=O)N(Cc4ccccc4)C(=O)N3Cc3ccccc3)[C@H](OCc3ccccc3)[C@H]2O1 (stereo not given in full) | inactive | 13% | 65% | –
20 | CCOC(=O)CC(C1O[C@H]2OC(C)(C)O[C@H]2[C@@H]1OC)N(Cc1ccccc1O)C(=O)Nc1cccc(C(C)=O)c1 (stereo not given in full) | Active | – | 41% | 23%

Row | Structure (SMILES) | Activity (Brugia malayi [1]) | Activity [2] | inhibition at 100 µM (Brugia malayi [3]) | inhibition at 10 min, 100 µM [4]
21 | CCOC(=O)CC(NC(=O)[C@@H]1CCCN1)C1O[C@H]2OC(C)(C)O[C@H]2[C@@H]1OC (stereo not given in full) | Active | 28% | – | –
22 | CCOC(=O)CC(NC(=O)[C@@H](N)C(C)C)C1O[C@H]2OC(C)(C)O[C@H]2[C@@H]1OC (stereo not given in full) | Active | 20% | – | –
23 | CO[C@@H]1[C@H]2OC(C)(C)O[C@H]2O[C@@H]1C1CC(=O)N(Cc2ccccc2)C(=O)N1Cc1ccc(Br)cc1 (stereo not given in full) | Active | 41% | – | –
24 | CO[C@@H]1[C@H]2OC(C)(C)O[C@H]2O[C@@H]1C1CC(=O)N(c2ccc(Cl)cc2)C(=O)N1 (stereo not given in full) | inactive | 24% | 52% | –
25 | CO[C@@H]1[C@H]2OC(C)(C)O[C@H]2O[C@@H]1C1CC(=O)N(c2ccc(Cl)c(C)c2)C(=O)N1Cc1ccc(Br)cc1 (stereo not given in full) | inactive | – | 45% | –
26 | CO[C@@H]1[C@H]2OC(C)(C)O[C@H]2O[C@@H]1C1CC(=O)N(Cc2ccccc2)C(=O)N1Cc1ccccc1 (stereo not given in full) | inactive | – | – | –
27 | CO[C@@H]1[C@H]2OC(C)(C)O[C@H]2O[C@@H]1C1CC(=O)N(c2cccc(C(C)=O)c2)C(=O)N1Cc1ccc(Br)cc1 (stereo not given in full) | inactive | – | – | 27%
28 | CO[C@@H]1[C@H]2OC(C)(C)O[C@H]2O[C@@H]1C1CC(=O)N(c2ccc(Br)cc2)C(=O)N1c1ccco1 (stereo not given in full) | inactive | – | 32% | 32%
29 | CC(=O)c1ccc(N2C(=O)CC([C@H]3O[C@@H]4OC(C)(C)O[C@@H]4[C@H]3OCc3ccccc3)NC2=O)cc1 (stereo not given in full) | Active | 19% | 27% | –
30 | CO[C@@H]1[C@H]2OC(C)(C)O[C@H]2O[C@@H]1C1CC(=O)N(c2cccc(C#N)c2)C(=O)N1Cc1ccccc1 (stereo not given in full) | inactive | – | – | 32%
31 | CCCCCCCCCCCCCCCCNC(CC(=O)NO)C1O[C@H]2OC(C)(C)O[C@H]2[C@@H]1OC (stereo not given in full) | Active | 214% | 92% | –
32 | CCCCc1ccc(N2C(=O)CC([C@H]3O[C@@H]4OC(C)(C)O[C@@H]4[C@H]3OC)N(Cc3ccccc3)C2=O)cc1 (stereo not given in full) | inactive | – | 76% | 13%
33 | CCCCN1C(=S)N(c2cccc(Cl)c2)C(=O)CC1[C@H]1O[C@@H]2OC(C)(C)O[C@@H]2[C@H]1OC (stereo not given in full) | Active | 21% | – | –
34 | CCOC(=O)CC(NCCCCCCCCCCCCNC(CC(=O)OCC)C1O[C@@H]2OC(C)(C)O[C@@H]2[C@H]1OCc1ccccc1)C1O[C@H]2OC(C)(C)O[C@H]2[C@@H]1OCc1ccccc1 (stereo not given in full) | inactive | – | – | –
35 | CCCCCCCCCCCCNC(CC(=O)NO)C1O[C@H]2OC(C)(C)O[C@H]2[C@@H]1OCc1ccccc1 (stereo not given in full) | Active | 57% | 98% | –
36 | Cc1cc(N2C(=O)CC([C@H]3O[C@@H]4OC(C)(C)O[C@@H]4[C@H]3OCc3ccccc3)N(Cc3ccc(Br)cc3)C2=O)ccc1Cl (stereo not given in full) | Active | – | – | –
37 | COc1ccc(CN2C(=O)N(Cc3ccccc3)C(=O)CC2[C@H]2O[C@@H]3OC(C)(C)O[C@@H]3[C@H]2OCc2ccccc2)cc1 (stereo not given in full) | inactive | – | – | –
38 | CCOc1ccc(N2C(=O)CC([C@H]3O[C@@H]4OC(C)(C)O[C@@H]4[C@H]3OC)N(c3ccco3)C2=O)cc1 (stereo not given in full) | inactive | – | 34% | 26%
39 | CC1(C)O[C@H]2O[C@H](C3CC(=O)N(Cc4ccccc4)C(=O)N3Cc3ccc(Br)cc3)[C@H](OCc3ccccc3)[C@H]2O1 (stereo not given in full) | inactive | – | 24% | –
40 | CCCCc1ccc(N2C(=O)CC([C@H]3O[C@@H]4OC(C)(C)O[C@@H]4[C@H]3OC)N(c3ccco3)C2=O)cc1 (stereo not given in full) | inactive | – | 57% | –

Reference: ChEMBL document CHEMBL3046834, “MODULATION OF FILARIAL GLUTATHIONE-S-TRANSFERASE(S) ACTIVITY: A POSSIBILITY TOWARDS THE SYNTHESIS OF NEW CLASSES OF ANTIFILARIAL AGENTS” (Med Chem Res, 2004)
